Where two headings read alike, the source gives them in different places. Strand notation (5' to 3'): a small letter for the sugar, then the base; units joined by * are phosphorothioate-linked, units joined directly phosphodiester-linked; [ ] holds rarer units or linkages, { } end groups; capitals alone tell only the bases. d = 2'-deoxy (DNA)
Assays:
MDM2 [1] = conditions: JAR and SJSA cells, 100-400 nM, Lipofectin; cited from earlier work
JAR cells [2] = conditions: cited from earlier work
tumor cell lines [3] = conditions: H1299 cells that lack p53; cited from earlier work
p53 [4] = assay: p53-responsive BP100-luciferase reporter in JAR cells; format: cell-based, human
[5] = tested on: JAR-TK-luc and H1299-BP100-luc cells; assay: Control luciferase reporters in JAR-TK-luc and H1299-BP100-luc cells; format: cell-based, human
Protocol: JAR cells stably transfected with a luciferase reporter driven by the thymidine kinase gene promoter (JAR-TK-luc) and H1299 cells containing no p53 that had been stably transfected with BP100-luciferase (H1299-BP1000-luc) were also tested. […] Similar results were also observed using AS5 in osteosarcoma SJSA cells (data not shown).

p21/WAF1 [6] = assay: p21/WAF1 induction by Western blot in JAR cells; format: cell-based, human; conditions: 200 nM, relative to control-treated cells
Protocol: To assess the ability of the oligonucleotides of the invention to induce the expression of a p53-inducible gene, p21/WAF1 levels were examined in oligonucleotide-treated JAR cells. Total protein was purified from control oligonucleotide-treated cells and from antisense oligonucleotide-treated cells (200 nM oligonucleotide AS5) as described in Example 1. Equal amounts of purified total protein were immunoprecipitated and analyzed by Western blotting carried out for MDM2 detection using a polyclonal rabbit anti-human p21/WAF1 serum. Following hybridization, the blots were exposed to XAR film (Eastman Kodak, Rochester, N.Y.) and the autoradiograms are quantitated by phosphoroimaging.

JAR cells [7] = assay: Induction of apoptosis / cell death in JAR cells; format: cell-based, human; conditions: 400 nM
Protocol: JAR cells (ATCC) were grown in DMEM medium supplemented with 1% FBS according to standard cell culture techniques. Cells were then treated for 30 hours with growth medium containing 400 nM of either antisense oligonucleotide AS5 (SEQ ID NO:28) complementary to a portion of MDM2-encoding RNA or control oligonucleotide M4 (SEQ ID NO:5), and 7 μg/ml lipofectin (Gibco BRL Paisley, UK). Treated cells were then photographed using a phase contrast microscope.
JAR cells were treated for 24 hours as described in Example 6. Floating cells were harvested and chromosomal DNA was extracted according to standard techniques (Liu et al., Cell 86:147-157 (1996)). Purified DNA was then analyzed by agarose gel electrophoresis on a 2% agarose gel. Following electrophoresis the gel was stained with 0.5 μg/ml ethidium bromide.

p21/WAF1 [8] = conditions: optimal concentration 200 nM; cited from earlier work
MDM2 mRNA = assay: Northern blot of MDM2 mRNA in JAR cells; format: cell-based, human; conditions: 200 nM, 18 h
Protocol: JAR cells were treated with 200 nM of antisense oligonucleotide AS5 (SEQ ID NO:28) with no oligonucleotide, with 200 nM of control oligonucleotide M4 (SEQ ID NO:5). After 18 hours, the treated cells were harvested and RNA was purified and quantitated according to standard methods. (see e.g., Current Protocols in Molecular Biology, John Wiley & Sons Inc. (1995)). Twenty μg of total RNA were run on a 1% agarose denaturing gel. MDM2 mRNA was detected by hybridization using an EcoRI-NcoI fragment specific for the human MDM2 cDNA between nucleotides 310-1633. The filter was then stripped and reprobed with a 1.2 kb fragment, which is a full length human GAPDH cDNA to normalize values on the basis of loading variations, according to standard methods.

MDM2 [9] = assay: MDM2 protein level by immunoprecipitation/Western blot in oligonucleotide-treated cells; format: cell-based, human; conditions: JAR cells, 18 h, Lipofectin 7 μg/ml, Western blot (FIG. 2A)
p53 [10] = assay: Nuclear p53 level by immunofluorescence staining with Pab1801; format: cell-based, human; conditions: MCF-7 cells, 200 nM, 20 hr
p53-MDM2 complex = assay: Co-immunoprecipitation of p53-MDM2 complex in JAR cells; format: cell-based, human
Source text: Protein lysates from JAR cells treated with antisense oligonucleotides as described in Example 1 were immunoprecipitated with anti-p53 monoclonal antibody Pab421 (FIGS. 4A and 4B) (Harlow et al. J. Virol. 39:861-869 (1981)) or with polyclonal antibody 2A10 (panel C) according to the methods described in Example 1. The gel was then transferred onto an Immobilon P membrane (Millipore, Bedford, Mass.) to detect MDM2 co-precipitates.

tumor cell lines [11] = assay: Cell death / apoptosis in other cell lines; format: cell-based, human; conditions: H1299 cells (lack p53)

Substance: AS5: anti-MDM2 antisense PS-oligo SEQ ID NO:28, 5′-GATCACTCCCACCTTCAAGG-3′ (DNA dG*dA*dT*dC*dA*dC*dT*dC*dC*dC*dA*dC*dC*dT*dT*dC*dA*dA*dG*dG)
- decrease of MDM2 protein levels (MDM2 [1]): 3-5 fold
- apoptosis (JAR cells [2]): significant increase in the levels of apoptosis
- apoptosis (tumor cell lines [3]): did not cause visible apoptosis
- induction of p53 activity among the initial antisense oligonucleotides tested (p53 [4]): most effective
- activation of p53-responsive reporter expression (p53 [4]; JAR BP100-luc, 200 nM, 24 h): 7 fold
- activation of the p53 reporter (p53 [4]; JAR BP100-luc, 48 h, AS5 200 nM, CPT alone, AS5 alone or co-incubation): 17 fold
- activation of reporter gene in control cells [5]: did not activate the reporter gene
- induction of p21/WAF1 (p21/WAF1 [6]): up to 6.6 fold
- chromosomal DNA cleavage in floating cells (JAR cells [7]; 24 h, agarose gel): nucleosomal-sized low molecular weight bands characteristic of apoptosis
- cell death / apoptosis morphology (JAR cells [7]; 30 h, Lipofectin): induced significant cell death
- induction of p21 expression (p21/WAF1 [8]): up to 6.6 fold
- increase of MDM2 mRNA (MDM2 mRNA): 2.5 fold
- molecular weight of the MDM2 mRNA band (MDM2 mRNA): slight decrease in the molecular weight of the MDM2 mRNA band
- inhibition of MDM2 expression (MDM2 [9]): 3-5 fold
- nuclear p53 staining (p53 [10]): similar, but weaker
- total p53 levels (p53-MDM2 complex; JAR cells (FIG. 4A)): did not change
- amount of MDM2 co-precipitated with p53 (p53-MDM2 complex; JAR cells (FIG. 4B)): reduced
- apoptosis (tumor cell lines [11]): did not cause visible apoptosis

From patent US6946447B2, “MDM2-specific antisense oligonucleotides” (Hybridon, Inc., priority 1997, dated 2005)
